According to US20250082786A1, “FLUORESCENT MARKERS FOR NEUROFIBRILLAR TANGLES AND USES THEREOF” (FONDAZIONE ISTITUTO ITALIANO DI TECNOLOGIA, priority 2021, published 2025):

What was measured:
[1] = tested on: intracellular TAU aggregates in human iPSC-derived cortical neurons; experiment: Probe staining of hiPSC-derived cortical neurons, colocalization with anti-T22 and anti-AT8 antibodies; assay type: cell-based; settings: 100 μM probe, 30 minutes at 37° C., cortical neurons at 30 days in vitro
Description: FIG. 3. (A) Representative binarized fluorescence image showing human iPSC-derived cortical neurons at 30 days in vitro after incubation with BT1 (100 μM) for 30 minutes at 37° C. and staining with anti-T22 and anti-AT8 antibodies. • (B) Representative binarized fluorescence image showing human iPSC-derived cortical neurons at 30 days in vitro after incubation with TAU1 (100 μM) for 30 minutes at 37° C. and staining with anti-T22 and anti-AT8 antibodies. • (C) Fluorescence composite of the above representative images. […] (D) The probe specificity is calculated as the ratio between the antibody intensity within the area covered by BT1 or TAU1 out of the total antibody intensity (n=3), as determined using Image J. Images were acquired at the FV10i confocal microscope using a […] magnification. […]
Fixed hiPSC-derived cortical neurons and RGCs were permeabilized with 0.2% Triton X-100 (Merck Life Science) in 1×TBS and incubated for 1 hour in blocking solution containing 1×TBS, 0.2% Triton X-100, and 5% goat serum (Merck Life Science). […] Fluorescence intensity per field of view was determined using the Software Image J.
The ability of the BT1 probe to stain specifically intracellular TAU aggregates was determined as a function of the antibody fluorescent signal detected within the binarized probe signal.

[2] = tested on: intracellular TAU aggregates in human iPSC-derived retinal ganglion cells; experiment: Probe staining of hiPSC-derived retinal ganglion cells, colocalization with anti-T22 and anti-AT8 antibodies; assay type: cell-based; settings: 100 μM probe, 30 minutes at 37° C., retinal ganglion cells at 30 days in vitro
Description: FIG. 4. (A) Representative binarized fluorescence image showing human iPSC-derived retinal ganglion cells at 30 days in vitro after incubation with BT1 (100 μM) for 30 minutes at 37° C. and staining with anti-T22 and anti-AT8 antibodies. • (B) Representative binarized fluorescence image showing human iPSC-derived retinal ganglion cells at 30 days in vitro after incubation with TAU1 (100 μM) for 30 minutes at 37° C. and staining with anti-T22 and anti-AT8 antibodies. • (C) Fluorescence composite of the above representative images. The fluorescent image of BT1 was obtained using excitation at 520 nm with a 555/15 nm filter in detection; TAU1 was obtained using excitation at 470 nm with a 510/5 nm filter in detection. […] Cell nuclei were stained with DAPI. • (D) The probe specificity is calculated as the ratio between the antibody intensity within the area covered by BT1 or TAU1 out of the total antibody intensity (n=3), as determined using Image J. Images were acquired at the FV10i confocal microscope using a 60× magnification.
The differentiation protocol was a revisited version of Sluch V. et al, 2017 with minor modifications. Human iPSCs were dissociated to single cells with 1× Accutase (Merck Life science) and plated on growth factor-reduced Matrigel coated plates at a density of 1000 cells/mm2 in mTeSR Plus supplemented with 10 μM Rock-inhibitor Y-27632 (Peprotech). […]

Compound: CC1=CC(/C=C/c2ccc(/C=C/c3ccc(N(C)C)cc3)cc2)=[N+]2C1=Cc1cccn1[B-]2(F)F [BT1, 3-((E)-4-((E)-4-(dimethylamino)styryl)styryl)-5,5-difluoro-1-methyl-5H-dipyrrolo[1,2-c:2′,1′-f][1,3,2]diazaborinin-4-ium-5-uide]
- Ability to detect phosphorylated (AT8-positive) aggregates [1]: higher ability to detect phosphorylated aggregates when compared to the TAU1 probe
- Colocalization of probe signal with AT8 versus T22 antibody signal [1]: higher colocalization with AT8 signal in respect to T22
- Ability to detect phosphorylated (AT8-positive) aggregates [2]: higher ability to detect phosphorylated aggregates when compared to the TAU1 probe
- Colocalization of probe signal with AT8 versus T22 antibody signal [2]: higher colocalization with AT8 signal in respect to T22
